The subject of data set [1] is Phytophthora. The data set is described as follows: whole plant or invertebrate. In kind it is in vivo. Conditions: in Solanum lycopersicum, read-out: inhibit fungal infestation.
The test system of data set [2] is Phytophthora. The data set is described as follows: whole plant or invertebrate. In kind it is in vivo. Conditions: in Solanum tuberosum, read-out: inhibit fungal infestation.
The next data set deals with Plasmopara viticola. Conditions: read-out: inhibit fungal infestation.

Like-named read-outs stand apart in the source and are kept apart here.

Procedure for Plasmopara viticola: D-1: Action Against Plasmopara viticola (downy mildew) on Vines
5 week old grape seedlings cv. Gutedel are treated with the formulated test compound in a spray chamber. One day after application grape plants are inoculated by spraying a sporangia suspension (4×10^4 sporangia/ml) on the lower leaf side of the test plants. After an incubation period of 6 days at +21° C. and 95% r. h. in a greenhouse the disease incidence is assessed.

A word on the melting point: it is the temperature, or range, at which the solid turns liquid. `CCS(=O)(=O)N[C@H](C(=O)NCc1ccc(OCC#Cc2ccc(Cl)cc2)c(OC)c1)C(C)C` [Compound A1.1, (S)-N-{4-[3-(4-Chloro-phenyl)-prop-2-ynyloxy]-3-methoxy-benzyl}-2-ethanesulfonylamino-3-methyl-butyramide] showed a melting point of 162 to 163 °C. The inhibition at 200 ppm in the data set with Phytophthora [1] is not below 80%. In the data set with Phytophthora [2], the inhibition at 200 ppm is not below 80%. Moreover, the inhibition at 200 ppm in the data set on Plasmopara viticola is not below 80%.
`CCS(=O)(=O)N[C@H](C(=O)NCc1ccc(OCc2ccccc2)c(OC)c1)C(C)C` gave a melting point of 141 to 152 °C.
`CCS(=O)(=O)N[C@H](C(=O)NCc1ccc(O)c(OC)c1)C(C)C`: the melting point is 49 to 50 °C.

The values are drawn from patent US20030224940A1, “Alpha-sulfin-and alpha-sulfonamino acid amide derivatives” (priority 2000, published 2003).
